Assay [1] deals with HCV genotype 1b (Con1) replicon in HUH-7 cells. Kind of assay: HCV replicon luciferase reporter assay, genotype 1b. The assay is classed as cell-based. The following applies: Hepatitis C virus, Huh-7, 72 h, HCV genotype 1b replicon luciferase assay, 3 days incubation, range class, read-out: LE_1b (EC50, range). Summed up: (§1)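 Replicon inhibition for both genotypes was measured as Renilla luciferase signal (EnduRen, 7.5 μM final, 2 h) after 3-day, 37° C exposure of replicon-bearing HUH-7 cells in 4% FCS DMEM, 0.5% DMSO. The 1b construct carries S1179I; the 1a H77 construct carries P1496L and S2204I. Twenty-point, 3-fold dilutions were fitted four-parametrically for EC50, and CC50 was taken from multiplexed Cell Titer-Blue.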
(Replicon systems follow genome replication, usually without infectious particles.)

The test system of assay [2] is HCV genotype 1a (H77 strain) replicon in HUH-7 cells. Kind of assay: HCV replicon luciferase reporter assay, genotype 1a. Format: cell-based. The note with it: Hepatitis C virus, Huh-7, 72 h, HCV genotype 1a replicon luciferase assay, 3 days incubation, range class, read-out: LE_1a (EC50, range). Summed up:
as §1

What is called EC50 is the concentration needed to bring the measured effect to its halfway point. For the compound `COc1ccc2c(O[C@@H]3C[C@H]4C(=O)N[C@]5(C(=O)NS(=O)(=O)C6CC6)C[C@H]5/C=C\CC[C@H](C)C[C@@H](C)[C@H](NC(=O)O[C@@H]5C[C@@H]6C[C@@H]6C5)C(=O)N4C3)nc(N3CCOCC3)cc2c1` [Compound 3104, (1R,3r,5S)-bicyclo[3.1.0]hexan-3-yl((2R,6S,7R,9S,13aS,14aR,16aS,Z)-14a-((cyclopropylsulfonyl)carbamoyl)-2-((6-methoxy-3-morpholinoisoquinolin-1-yl)oxy)-7,9-dimethyl-5,16-dioxo-1,2,3,5,6,7,8,9,10,11,13a,14,14a,15,16,16a-hexadecahydrocyclopropa[e]pyrrolo[1,2-a][1,4]diazacyclopentadecin-6-yl)carbamate], the EC50 in assay [1] and in assay [2] was 4.82 to 103 nM in each case.
With `COc1ccc2c(O[C@@H]3C[C@H]4C(=O)N[C@]5(C(=O)NS(=O)(=O)C6CC6)C[C@H]5/C=C\CC[C@@H](C)C[C@@H](C)[C@H](NC(=O)O[C@@H]5C[C@@H]6C[C@@H]6C5)C(=O)N4C3)nc(N3CCOCC3)cc2c1` [Compound 3105, (1R,3r,5S)-bicyclo[3.1.0]hexan-3-yl((2R,6S,7R,9R,13aS,14aR,16aS,Z)-14a-((cyclopropylsulfonyl)carbamoyl)-2-((6-methoxy-3-morpholinoisoquinolin-1-yl)oxy)-7,9-dimethyl-5,16-dioxo-1,2,3,5,6,7,8,9,10,11,13a,14,14a,15,16,16a-hexadecahydrocyclopropa[e]pyrrolo[1,2-a][1,4]diazacyclopentadecin-6-yl)carbamate], the EC50 in assay [1] and in assay [2] was under 5.46 nM in each case.
With `COc1ccc2c(O[C@@H]3C[C@H]4C(=O)N[C@]5(C(=O)NS(=O)(=O)C6CC6)C[C@H]5/C=C\CC[C@H](C)C[C@@H](C)[C@H](NC(=O)OC(C)(C)C)C(=O)N4C3)nc(N3CCOCC3)cc2c1` [Compound 3106, tert-butyl ((2R,6S,7R,9S,13aS,14aR,16aS,Z)-14a-((cyclopropylsulfonyl)carbamoyl)-2-((6-methoxy-3-morpholinoisoquinolin-1-yl)oxy)-7,9-dimethyl-5,16-dioxo-1,2,3,5,6,7,8,9,10,11,13a,14,14a,15,16,16a-hexadecahydrocyclopropa[e]pyrrolo[1,2-a][1,4]diazacyclopentadecin-6-yl)carbamate], the EC50 in assay [1] and in assay [2] was 4.82 to 103 nM in each case.
For the compound `COc1ccc2c(O[C@@H]3C[C@H]4C(=O)N[C@]5(C(=O)NS(=O)(=O)C6CC6)C[C@H]5/C=C\CC[C@@H](C)C[C@@H](C)[C@H](NC(=O)OC(C)(C)C)C(=O)N4C3)nc(N3CCOCC3)cc2c1` [Compound 3107, tert-butyl ((2R,6S,7R,9R,13aS,14aR,16aS,Z)-14a-((cyclopropylsulfonyl)carbamoyl)-2-((6-methoxy-3-morpholinoisoquinolin-1-yl)oxy)-7,9-dimethyl-5,16-dioxo-1,2,3,5,6,7,8,9,10,11,13a,14,14a,15,16,16a-hexadecahydrocyclopropa[e]pyrrolo[1,2-a][1,4]diazacyclopentadecin-6-yl)carbamate], the EC50 in assay [1] and in assay [2] was under 5.46 nM each time.
Take `COc1ccc2c(O[C@@H]3C[C@H]4C(=O)N[C@]5(C(=O)NS(=O)(=O)C6(C)CC6)C[C@H]5/C=C\CC[C@H](C)C[C@@H](C)[C@H](NC(=O)OC(C)(C)C)C(=O)N4C3)nc(N(C)C)cc2c1` [Compound 3108, tert-butyl ((2R,6S,7R,9S,13aS,14aR,16aS,Z)-2-((3-(dimethylamino)-6-methoxyisoquinolin-1-yl)oxy)-7,9-dimethyl-14a-(((1-methylcyclopropyl)sulfonyl)carbamoyl)-5,16-dioxo-1,2,3,5,6,7,8,9,10,11,13a,14,14a,15,16,16a-hexadecahydrocyclopropa[e]pyrrolo[1,2-a][1,4]diazacyclopentadecin-6-yl)carbamate]: the EC50 in assay [1] and in assay [2] was 4.82 to 103 nM each time.
On to `COc1ccc2c(O[C@@H]3C[C@H]4C(=O)N[C@]5(C(=O)NS(=O)(=O)C6(C)CC6)C[C@H]5/C=C\CC[C@@H](C)C[C@@H](C)[C@H](NC(=O)OC(C)(C)C)C(=O)N4C3)nc(N(C)C)cc2c1` [Compound 3109, tert-butyl ((2R,6S,7R,9R,13aS,14aR,16aS,Z)-2-((3-(dimethylamino)-6-methoxyisoquinolin-1-yl)oxy)-7,9-dimethyl-14a-(((1-methylcyclopropyl)sulfonyl)carbamoyl)-5,16-dioxo-1,2,3,5,6,7,8,9,10,11,13a,14,14a,15,16,16a-hexadecahydrocyclopropa[e]pyrrolo[1,2-a][1,4]diazacyclopentadecin-6-yl)carbamate], for which the EC50 in assay [1] and in assay [2] was 4.82 to 103 nM throughout.
On to `COc1ccc2c(O[C@@H]3C[C@H]4C(=O)N[C@]5(C(=O)NS(=O)(=O)C6(C)CC6)C[C@H]5/C=C\CC[C@H](C)C[C@@H](C)[C@H](NC(=O)O[C@@H]5C[C@@H]6C[C@@H]6C5)C(=O)N4C3)nc(N(C)C)cc2c1` [Compound 3110, (1R,3r,5S)-bicyclo[3.1.0]hexan-3-yl((2R,6S,7R,9S,13aS,14aR,16aS,Z)-2-((3-(dimethylamino)-6-methoxyisoquinolin-1-yl)oxy)-7,9-dimethyl-14a-(((1-methylcyclopropyl)sulfonyl)carbamoyl)-5,16-dioxo-1,2,3,5,6,7,8,9,10,11,13a,14,14a,15,16,16a-hexadecahydrocyclopropa[e]pyrrolo[1,2-a][1,4]diazacyclopentadecin-6-yl)carbamate], for which the EC50 in assay [1] and in assay [2] was 4.82 to 103 nM throughout.
For the compound `COc1ccc2c(O[C@@H]3C[C@H]4C(=O)N[C@]5(C(=O)NS(=O)(=O)C6(C)CC6)C[C@H]5/C=C\CC[C@@H](C)C[C@@H](C)[C@H](NC(=O)O[C@@H]5C[C@@H]6C[C@@H]6C5)C(=O)N4C3)nc(N(C)C)cc2c1` [Compound 3111, (1R,3r,5S)-bicyclo[3.1.0]hexan-3-yl((2R,6S,7R,9R,13aS,14aR,16aS,Z)-2-((3-(dimethylamino)-6-methoxyisoquinolin-1-yl)oxy)-7,9-dimethyl-14a-(((1-methylcyclopropyl)sulfonyl)carbamoyl)-5,16-dioxo-1,2,3,5,6,7,8,9,10,11,13a,14,14a,15,16,16a-hexadecahydrocyclopropa[e]pyrrolo[1,2-a][1,4]diazacyclopentadecin-6-yl)carbamate], the EC50 in assay [1] was 4.82 to 103 nM; in assay [2], under 5.46 nM.
Taken in the same sequence, the figures for `COc1ccc2c(O[C@@H]3C[C@H]4C(=O)N[C@]5(C(=O)NS(=O)(=O)C6(C)CC6)C[C@H]5/C=C\CC[C@H](C)C[C@@H](C)[C@H](NC(=O)O[C@H](C)C(F)(F)F)C(=O)N4C3)nc(N(C)C)cc2c1` [Compound 3112, (R)-1,1,1-trifluoropropan-2-yl ((2R,6S,7R,9S,13aS,14aR,16aS,Z)-2-((3-(dimethylamino)-6-methoxyisoquinolin-1-yl)oxy)-7,9-dimethyl-14a-(((1-methylcyclopropyl)sulfonyl)carbamoyl)-5,16-dioxo-1,2,3,5,6,7,8,9,10,11,13a,14,14a,15,16,16a-hexadecahydrocyclopropa[e]pyrrolo[1,2-a][1,4]diazacyclopentadecin-6-yl)carbamate] were 4.82 to 103 nM and 4.82 to 103 nM.

The values are drawn from patent US9499550B2 (BRISTOL-MYERS SQUIBB COMPANY, priority 2012, dated 2016).
